Assay results published in article PMC8710297, “Identification of potent SENP1 inhibitors that inactivate SENP1/JAK2/STAT signaling pathway and overcome platinum drug resistance in ovarian cancer” (Clinical and Translational Medicine, 2021).

Legend:
IGROV1 CR cells [1] = assay: Drug synergy screening: SRB proliferation assay with 2 μM cisplatin; format: cell-based
Experimental: (A) Collection of Momordin Ic (Mc) natural compound analogues. […] Cell proliferation was determined by the sulforhodamine B (SRB) assay. […] IGROV1 CR cells were incubated with Mc at indicated concentrations for 48 h and then harvested for Western blot for indicated proteins. […] IGROV1 CR cells were incubated with UA and then treated as in C. […] Intensity of SUMOylated JAK2 was measured by Quantity One software. […] Recombinant His‐JAK2 was SUMOylated by in vitro SUMOylation assay, and then SUMOylated JAK2 proteins were incubated with or without recombinant GST‐SENP1 together with Mc for 3 h. […] In vitro assay was performed as in (F). […]

IGROV1 CR cells [2] = assay: Viability of IGROV1 CR cells treated with compound alone (SRB); format: cell-based; conditions: 48 hrs
Experimental: Cel l proliferation was determined by SR B assay. (B) Viability of IG ROV 1 CR cells treated by indicated compounds fo r 48 hrs. SRB assay wa s used to determine cell viabil ity. […]
1. Antibodies and re a ge nt s […]
[…] Momordin Ic ( A14773; Adooq Biosc ience) was dissolved in DMSO. Ursolic acid (A10961; Adooq Bioscience) wa s dissolved in DMSO. Collection of Mc natural compound an alogs were pu rch ase d fro m Sigma. Detailed proced ure to sy nt h e s ize UA derivatives was in c lu d ed in suppleme ntal material and methods.
2. Cell culture and resistance cell line establishment […]
were cultured at 37 °C in DM EM with 10% Fe ta l Bovine Serum (F BS). All th e cells were cultured at in a humidified incubator with 5% CO2 atmo s phe re.
3. In vitro SUMOylation and de‐SU MOylation assays
The SUMO yl ation re ac tions were performed according to th e manufacture’s instruction (BML‐UW8955‐ 0001; ENZO) and were described previously (1) . Briefly, 200 nM of purified HIS‐JAK 2 wa s mixed wit h reco mbinant SUMOs in reac ti on bu ffer (20 μl) containing Mg‐ AT P, SUMO E1, and SUMO E2, followed by incubation at 37°C fo r 60 min. […]
Cell viability was detected using Sulforhodamine B (SRB) assay as described previously (3).
Absorbance at 51 0 nm was detected using a SpectraMax Re a d e r (Molecular Devices) and an alyzed with SoftMax Analys is Software (Molecular Devices). […]

Row | Structure (SMILES) | IC50 of UA derivatives to inhibit resistant cells together with cisplatin (in words) (IGROV1 CR cells [1]) | toxicity to cells of compound alone (IGROV1 CR cells [2])
1 | C[C@H]1[C@H](C)CC[C@]2(C(=O)OCCNC(=O)OC(C)(C)C)CC[C@]3(C)C(=CC[C@@H]4[C@@]5(C)CC[C@H](O)C(C)(C)[C@@H]5CC[C@]43C)[C@H]12 [UAMMC3] | lower IC50 | higher toxicity
2 | C[C@H]1[C@H](C)CC[C@]2(C(=O)OCC(=O)NCCO)CC[C@]3(C)C(=CC[C@@H]4[C@@]5(C)CC[C@H](O)C(C)(C)[C@@H]5CC[C@]43C)[C@H]12 [UAMMC5] | lower IC50 | higher toxicity
